Each structure is given as a SMILES string.

In the assay the target is T1, FLT3 ITD (Homo sapiens, UniProt P36888).
T1 construct: fused on or other part: DNA tag for qPCR detection (T7 phage fusion or DNA-tagged protein from HEK-293 cells)
T1 sequence (P36888 1-993): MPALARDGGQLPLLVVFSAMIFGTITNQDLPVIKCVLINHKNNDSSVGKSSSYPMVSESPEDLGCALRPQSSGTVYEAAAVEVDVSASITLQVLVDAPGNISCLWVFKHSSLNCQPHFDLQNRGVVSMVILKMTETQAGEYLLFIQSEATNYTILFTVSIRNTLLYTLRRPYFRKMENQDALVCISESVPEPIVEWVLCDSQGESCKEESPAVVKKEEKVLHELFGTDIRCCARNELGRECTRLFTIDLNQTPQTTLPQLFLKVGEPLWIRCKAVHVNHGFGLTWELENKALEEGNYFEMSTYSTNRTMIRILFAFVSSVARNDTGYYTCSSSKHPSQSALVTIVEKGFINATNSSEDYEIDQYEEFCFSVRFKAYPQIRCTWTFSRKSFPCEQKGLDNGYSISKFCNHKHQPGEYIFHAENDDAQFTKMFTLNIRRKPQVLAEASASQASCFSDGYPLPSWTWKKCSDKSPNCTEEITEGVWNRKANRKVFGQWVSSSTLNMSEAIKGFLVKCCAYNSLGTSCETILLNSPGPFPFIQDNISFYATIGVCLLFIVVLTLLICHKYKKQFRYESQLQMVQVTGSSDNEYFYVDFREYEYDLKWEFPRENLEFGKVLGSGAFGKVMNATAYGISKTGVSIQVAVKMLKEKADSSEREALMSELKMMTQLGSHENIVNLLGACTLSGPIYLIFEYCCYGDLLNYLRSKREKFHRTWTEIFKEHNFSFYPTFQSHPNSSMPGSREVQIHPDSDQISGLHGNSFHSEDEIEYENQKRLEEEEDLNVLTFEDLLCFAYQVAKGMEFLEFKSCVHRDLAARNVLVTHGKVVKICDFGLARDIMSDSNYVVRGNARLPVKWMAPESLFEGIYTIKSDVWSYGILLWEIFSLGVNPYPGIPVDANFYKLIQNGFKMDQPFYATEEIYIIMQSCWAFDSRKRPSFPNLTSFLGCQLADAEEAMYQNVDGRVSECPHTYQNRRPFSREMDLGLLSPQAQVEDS
The assay can be described thus: DiscoverX KINOMEscan competition binding, FLT3 ITD. The text has this: Kinase binding data were obtained for various exemplary compounds prepared according to Examples 1-24 using the DiscoverX KINOMVIEscan® active site-directed competition binding site-directed assay protocol described below. […] As a result, the data report thermodynamic interaction affinities (Kd values), rather than IC50 values that are dependent on ATP concentrations. The assay uses a DNA-tagged version of the protein kinase, and an immobilized ligand bound to a solid support. Compounds that directly or indirectly prevent kinase binding to the immobilized ligand reduce the amount of kinase captured on the solid support, which is detected using an ultra-sensitive qPCR method. Affinity constants reported from the assay have been reported to be independent of the immobilized ligand used that is coupled to the solid support (See supplemental information in Fabian, M. A. et. al., (2005) Nat. Biotechnol. 23, 329-336; Wodicka, L. M. et. al., (2010) Chem. Biol. 17, 1241-1249.)
Kinase-tagged T7 phage strains were prepared in an E. coli host derived from the BL21 strain. E. coli were grown to log-phase and infected with T7 phage and incubated with shaking at 32° C. until lysis. The lysates were centrifuged and filtered to remove cell debris. The remaining kinases were produced in HEK-293 cells and subsequently tagged with DNA for qPCR detection. Streptavidin-coated magnetic beads were treated with biotinylated small molecule ligands for 30 minutes at room temperature to generate affinity resins for kinase assays. The liganded beads were blocked with excess biotin and washed with blocking buffer (SeaBlock (Pierce), 1% BSA, 0.05% Tween 20, 1 mM DTT) to remove unbound ligand and to reduce non-specific binding. Binding reactions were assembled by combining kinases, liganded affinity beads, and test compounds in 1× binding buffer (20% SeaBlock, 0.17×PBS, 0.05% Tween 20, 6 mM DTT). Test compounds were prepared as 111× stocks in 100% DMSO. Kds were determined using an 11-point 3-fold compound dilution series with three DMSO control points. All compounds for Kd measurements are distributed by acoustic transfer (non-contact dispensing) in 100% DMSO. The compounds were then diluted directly into the assays such that the final concentration of DMSO was 0.9%. All reactions were performed in polypropylene 384-well plates. Each was a final volume of 0.02 mL. The assay plates were incubated at room temperature with shaking for 1 hour and the affinity beads were washed with wash buffer (1×PBS, 0.05% Tween 20). The beads were then re-suspended in elution buffer (1×PBS, 0.05% Tween 20, 0.5 μM nonbiotinylated affinity ligand) and incubated at room temperature with shaking for 30 minutes. The kinase concentration in the eluates was measured by qPCR.
Binding constants (Kds) were calculated with a standard dose-response curve using the Hill equation. The Hill Slope was set to −1. Curves were fitted using a non-linear least square fit with the Levenberg-Marquardt algorithm.

Turning to `CC1(c2cn3c(-c4cccc(N[C@H]5CNC[C@@H]5F)n4)cnc3cn2)CC1` [Compound 1, N-((3S,4S)-4-fluoropyrrolidin-3-yl)-6-(6-(1-methylcyclopropyl)imidazo[1,2-a]pyrazin-3-yl)pyridin-2-amine], the Kd worked out at 0.087 nM.

`CC1(c2cn3c(-c4cccc(N[C@@H]5CCNC5)n4)cnc3cn2)CC1` [Compound 3, (R)-6-(6-(1-methylcyclopropyl)imidazo[1,2-a]pyrazin-3-yl)-N-(pyrrolidin-3-yl)pyridin-2-amine] had a Kd of 0.14 nM.

`CC1(c2cn3c(-c4cccc(N[C@H]5CNCC56CC6)n4)cnc3cn2)CC1` [Compound 5, (R)-N-(6-(6-(1-methylcyclopropyl)imidazo[1,2-a]pyrazin-3-yl)pyridin-2-yl)-5-azaspiro[2.4]heptan-7-amine] returned a Kd of 0.11 nM.

The compound `FC(F)(F)C1(c2cn3c(-c4cccc(N[C@@H]5CCNC5)n4)cnc3cn2)CC1` [Compound 10, (R)-N-(pyrrolidin-3-yl)-6-(6-(1-(trifluoromethyl)cyclopropyl)imidazo[1,2-a]pyrazin-3-yl)pyridin-2-amine] gave a dissociation constant Kd of 1.4 nM.

Consider `FC(F)c1cn2c(-c3cccc(N[C@H]4CNC[C@@H]4F)n3)cnc2cn1` [Compound 16, 6-(6-(difluoromethyl)imidazo[1,2-a]pyrazin-3-yl)-N-((3S,4S)-4-fluoropyrrolidin-3-yl)pyridin-2-amine], for which the Kd came out at 0.14 nM.

`FC(F)c1cn2c(-c3cccc(N[C@H]4CNCC[C@@H]4F)n3)cnc2cn1` [Compound 25, 6-(6-(difluoromethyl)imidazo[1,2-a]pyrazin-3-yl)-N-((3S,4S)-4-fluoropiperidin-3-yl)pyridin-2-amine] returned a dissociation constant (Kd) of 0.34 nM.

`CC(C)(O)c1cn2c(-c3cccc(N[C@@H]4CCCNC4)n3)cnc2cn1` [Compound 30, (R)-2-(3-(6-(piperidin-3-ylamino)pyridin-2-yl)imidazo[1,2-a]pyrazin-6-yl)propan-2-ol]: the dissociation constant Kd came out at 2.9 nM.

Compound `CC(C)(O)c1cn2c(-c3cccc(N[C@H]4CNCC[C@@H]4F)n3)cnc2cn1` [Compound 31, 2-(3-(6-(((3S,4S)-4-fluoropiperidin-3-yl)amino)pyridin-2-yl)imidazo[1,2-a]pyrazin-6-yl)propan-2-ol] gave a dissociation constant Kd of 1.5 nM.

With `FC(F)(F)COc1cn2c(-c3cccc(N[C@@H]4CCNC4)n3)cnc2cn1` [Compound 38, (R)-N-(pyrrolidin-3-yl)-6-(6-(2,2,2-trifluoroethoxy)imidazo[1,2-a]pyrazin-3-yl)pyridin-2-amine], the Kd was 2.3 nM.

Regarding `F[C@H]1CNC[C@@H]1Nc1cccc(-c2cnc3cnc(C4CC4)cn23)n1` [Compound 50, 6-(6-cyclopropylimidazo[1,2-a]pyrazin-3-yl)-N-((3S,4S)-4-fluoropyrrolidin-3-yl)pyridin-2-amine], the equilibrium dissociation constant (Kd) turned out to be 0.091 nM.

On to `Cn1cc(-c2cn3c(-c4cccc(N[C@H]5CNC[C@@H]5F)n4)cnc3cn2)cn1` [Compound 52, N-((3S,4S)-4-fluoropyrrolidin-3-yl)-6-(6-(1-methyl-1H-pyrazol-4-yl)imidazo[1,2-a]pyrazin-3-yl)pyridin-2-amine], for which the Kd was determined as 0.13 nM.

By Kd is commonly meant a measure of binding affinity in units of concentration. Low readings indicate a tighter complex, high ones a looser complex.

Source of the values: patent US12612410B2 (CHILDREN'S HOSPITAL MEDICAL CENTER, priority 2020, dated 2026).
